# Source: PMC5537869, “Role of Zucchini and Its Distinctive Components in the Modulation of Degenerative Processes: Genotoxicity, Anti-Genotoxicity, Cytotoxicity and Apoptotic Effects” (Nutrients, 2017)
# “And” between values parts separate entries of the source, which are not always exact repeats. Equal entries are not always repeated.
# Key:
# [1] = test system: Drosophila melanogaster transheterozygous larvae; assay: Genotoxicity (single treatment), Drosophila wing spot test (SMART); assay type: in vivo; parameters: key to Mann-Whitney Test: n.s.: non-significant; settings: for Mann-Whitney Test: vs negative control
# Description: (§1) The principles and basic procedures for the Drosophila wing spot test have been described by Graf et al., and in previous works of our group. Two strains of flies carrying wing genetic markers on the left arm of chromosome 3: multiple wing […] used. The transheterozygous larvae were obtained by crossing […] (Third Multiple 3), Bd^S(Beaded […]) virgin females. Hybrid eggs derived from crossing optimally fertile flies were collected over an 8 h period. […] Concurrent negative controls with the solvent alone (water) and positive controls with hydrogen peroxide (120 mM) were also run. Anti-genotoxicity tests were carried out by mixing the mutagen (hydrogen peroxide, 120 mM) with the compounds solution. After emergence, adult flies were collected from the treatment vials and stored in 70% ethanol. The wings of the flies were removed under a stereomicroscope using a pair of entomological tweezers, similar number of males and females-wings were mounted in Faure's solution on microscope slides and inspected, under 400× magnification, for the presence of clones of cells. The mutant clones were classified into three types: […] The appearance of twin spots indicated the recombinogenic activity of the chemotherapeutic agent (Figure 1). The frequencies of spots per fly of treated series were compared with its corresponding negative control series (water) to analyze Somatic Mutation and Recombination Test (SMART) data. For maximum power, statistical analyses were done exclusively for the total number of spots recovered. The non-parametric U test of Mann, Whitney and Wilcoxon was used to avoid weak positive and inconclusive results on SMART and to achieve a well-defined statistical diagnosis whether a given treatment should be regarded as genotoxic or not. The inhibition percentages (IP) were calculated using the total spots per wing with the following formula [16, 36]: IP = ((Genotoxine alone - Genotoxine plus active compound)/Genotoxine alone) × 100
# [2] = test system: Drosophila melanogaster transheterozygous larvae; assay: Anti-genotoxicity (combined treatment with hydrogen peroxide 120 mM), Drosophila wing spot test (SMART); assay type: in vivo; parameters: key to Mann-Whitney Test: n.s.: non-significant; settings: for Large Spots (>2 Cells) m = 5 / Small Spots (1–2 Cells) m = 2 / Total Spots m = 2 / Twin Spots m = 5 / Mann-Whitney Test: combined treatment with H2O2 120 mM; for Mann-Whitney Test: vs negative control
# Description: as §1
# HL60 cells [3] = assay: Cytotoxicity assay, trypan blue exclusion; assay type: cell-based, human; settings: for cytotoxic effect (tumoral viability): HL60, 72 h, trypan blue exclusion, at the tested concentrations
# Description: Therefore, all the cells that exclude the dye are viable. Non-viable cells stained purple-violet, whereas viable ones remained unstained. Trypan blue was added to cell cultures at a 1:1 ratio, and 20 μL of cell suspension was loaded into a Neubauer chamber. The cells were counted under an inverted microscope at 100× magnification. […] Curves are expressed as survival percentage with respect to controls growing at 72 h. All data represent the average of at least three independent experiments.
# HL60 cells [4] = assay: Nucleosomal DNA fragmentation assay; assay type: cell-based, human; settings: HL60, 5 h, same concentrations as in the cytotoxicity assay, agarose gel
# Description: The HL60 tumoral cell line was used with the aim of analyse the apoptotic induction. […] A non-treated cells control was included for each experiment. For DNA fragmentation, treated cells were collected, were centrifuged at 4000 rpm for 5 min and washed with PBS. […] The agarose gels were run at 50 V for 90 min in TBE (Tris/Borate/EDTA) buffer and then observed and photographed under UV light. For Annexin V-PI test, Annexin V Apoptosis Detection Kit ([…] Biotech S.L., Cordoba, Spain) was used. Briefly, cells were resuspended in 100 μL of Binding buffer solution 1× and subsequently, 5 μL AnnexinV-FITC (Fluorescein isothiocyanate) and 10 μL propidium iodide were added, and samples were incubated for 10 min at room temperature in darkness, and flow cytometry (Beckman Coulter Inc., Brea, CA, USA) was then used to analyze the rate of apoptosis.
# HL60 cells [5] = assay: Annexin V-PI apoptosis assay (flow cytometry); assay type: cell-based, human; settings: HL60, 5 h, highest concentrations
# Description: The HL60 tumoral cell line was used with the aim of analyse the apoptotic induction. HL60 cells (1.5 × 10^6 cells) were treated with the same concentrations of the different compounds for 5 h. A non-treated cells control was included for each experiment. For DNA fragmentation, treated cells were collected, were centrifuged at 4000 rpm for 5 min and washed with PBS. The DNA was extracted using a commercial kit (MBL 243, Dominion mbl, Córdoba, Spain) and the resulting total DNA was treated with RNAse in order to eliminate false positive for 30 min at 37 °C. Samples of 1.5 μg of DNA were mixed with loading buffer and loaded onto a pre-solidified 2% agarose gel containing ethidium bromide. The agarose gels were run at 50 V for 90 min in TBE (Tris/Borate/EDTA) buffer and then observed and photographed under UV light. For Annexin V-PI test, Annexin V Apoptosis Detection Kit (Canvax Biotech S.L., Cordoba, Spain) was used. Briefly, cells were resuspended in 100 μL of Binding buffer solution 1× and subsequently, 5 μL AnnexinV-FITC (Fluorescein isothiocyanate) and 10 μL propidium iodide were added, and samples were incubated for 10 min at room temperature in darkness, and flow cytometry (Beckman Coulter Inc., Brea, CA, USA) was then used to analyze the rate of apoptosis.
# HL60 cells [6] = settings: cited from earlier work
# Drosophila melanogaster = test system: Drosophila melanogaster; parameters: method as in PMID 19937581; settings: SMART, 1, 2 and 4 mg/mL; cited from earlier work
structure (smiles),measurement,setting,value
"O=C1OC(C(O)CO)C(=O)C1=O (stereo not drawn) [DHA, dehydroascorbic acid]",Large Spots (>2 Cells) m = 5,"[1]; single treatment, 0.003 mM",0.03 (1) clones per wing
same,Small Spots (1–2 Cells) m = 2,"[1]; single treatment, 0.003 mM",0.10 (4) clones per wing
same,Total Spots m = 2,"[1]; single treatment, 0.003 mM",0.13 (5) clones per wing
same,Twin Spots m = 5,"[1]; single treatment, 0.003 mM",0.00 (0) clones per wing
same,Mann-Whitney Test,"[1]; single treatment, 0.003 mM",n.s.
same,Large Spots (>2 Cells) m = 5,"[1]; single treatment, 0.107 mM",0.03 (1) clones per wing
same,Small Spots (1–2 Cells) m = 2,"[1]; single treatment, 0.107 mM",0.15 (6) clones per wing
same,Total Spots m = 2,"[1]; single treatment, 0.107 mM",0.18 (7) clones per wing
same,Twin Spots m = 5,"[1]; single treatment, 0.107 mM",0.00 (0) clones per wing
same,Mann-Whitney Test,"[1]; single treatment, 0.107 mM",n.s.
same,Total Spots m = 2,"[1]; single treatment, 0.107 mM, listed as dehydroascorbic acid",0.18 clones per wing
same,Large Spots (>2 Cells) m = 5,[2]; 0.003 mM,0.00 (0) clones per wing
same,Small Spots (1–2 Cells) m = 2,[2]; 0.003 mM,0.08 (3) clones per wing
same,Total Spots m = 2,[2]; 0.003 mM,0.08 (3) clones per wing
same,Twin Spots m = 5,[2]; 0.003 mM,0.00 (0) clones per wing
same,Mann-Whitney Test,[2]; 0.003 mM,n.s.
same,Large Spots (>2 Cells) m = 5,[2]; 0.107 mM,0.03 (1) clones per wing
same,Small Spots (1–2 Cells) m = 2,[2]; 0.107 mM,0.10 (4) clones per wing
same,Total Spots m = 2,[2]; 0.107 mM,0.13 (5) clones per wing
same,Twin Spots m = 5,[2]; 0.107 mM,0.00 (0) clones per wing
same,Mann-Whitney Test,[2]; 0.107 mM,n.s.
same,cytotoxicity,"HL60 cells [3]; HL60, 0.7 mM",did not show cytotoxicity
same,cytotoxic effect (tumoral viability),HL60 cells [3],slight cytotoxic activities
same,internucleosomal DNA fragmentation ladder pattern,HL60 cells [4],did not show any internucleosomal fragmentation ladder pattern
"OO [H2O2, hydrogen peroxide, reference compound]",Large Spots (>2 Cells) m = 5,"[1]; positive control alone, 120 mM",0.13 (5) clones per wing
same,Small Spots (1–2 Cells) m = 2,"[1]; positive control alone, 120 mM",0.38 (15) clones per wing
same,Total Spots m = 2,"[1]; positive control alone, 120 mM",0.52 clones per wing and 0.52 (21) clones per wing
same,Twin Spots m = 5,"[1]; positive control alone, 120 mM",0.03 (1) clones per wing
same,Mann-Whitney Test,"[1]; positive control alone, 120 mM",* (*: significant (p ≤ 0.05))
"CC1=C[C@H](O)CC(C)(C)[C@H]1/C=C/C(C)=C/C=C/C(C)=C/C=C/C=C(C)/C=C/C=C(C)/C=C/C1=C(C)C[C@@H](O)CC1(C)C [Lutein, lutein]",Large Spots (>2 Cells) m = 5,"[1]; single treatment, 0.039 μM",0.08 (3) clones per wing
same,Small Spots (1–2 Cells) m = 2,"[1]; single treatment, 0.039 μM",0.15 (6) clones per wing
same,Total Spots m = 2,"[1]; single treatment, 0.039 μM",0.23 (9) clones per wing
same,Twin Spots m = 5,"[1]; single treatment, 0.039 μM",0.00 (0) clones per wing
same,Mann-Whitney Test,"[1]; single treatment, 0.039 μM",n.s.
same,Large Spots (>2 Cells) m = 5,"[1]; single treatment, 0.615 μM",0.08 (3) clones per wing
same,Small Spots (1–2 Cells) m = 2,"[1]; single treatment, 0.615 μM",0.33 (13) clones per wing
same,Total Spots m = 2,"[1]; single treatment, 0.615 μM",0.45 (18) clones per wing
same,Twin Spots m = 5,"[1]; single treatment, 0.615 μM",0.05 (2) clones per wing
same,Mann-Whitney Test,"[1]; single treatment, 0.615 μM",n.s.
same,Total Spots m = 2,"[1]; single treatment, 0.615 μM, listed as lutein",0.45 clones per wing
same,Large Spots (>2 Cells) m = 5,[2]; 0.039 μM,0.06 (2) clones per wing
same,Small Spots (1–2 Cells) m = 2,[2]; 0.039 μM,0.06 (2) clones per wing
same,Total Spots m = 2,[2]; 0.039 μM,0.13 (4) clones per wing
same,Twin Spots m = 5,[2]; 0.039 μM,0.00 (0) clones per wing
same,Mann-Whitney Test,[2]; 0.039 μM,n.s.
same,Large Spots (>2 Cells) m = 5,[2]; 0.615 μM,0.16 (5) clones per wing
same,Small Spots (1–2 Cells) m = 2,[2]; 0.615 μM,0.25 (8) clones per wing
same,Total Spots m = 2,[2]; 0.615 μM,0.47 (15) clones per wing
same,Twin Spots m = 5,[2]; 0.615 μM,0.06 (2) clones per wing
same,Mann-Whitney Test,[2]; 0.615 μM,* (*: significant (p ≤ 0.05))
same,Total Spots m = 2,"[2]; 0.615 μM, listed as lutein",0.47 clones per wing
same,cytotoxic effect (tumoral viability),HL60 cells [3],did not observe any cytotoxic effect
same,internucleosomal DNA fragmentation ladder pattern,HL60 cells [4],did not show any internucleosomal fragmentation ladder pattern
CC1=C(/C=C/C(C)=C/C=C/C(C)=C/C=C/C=C(C)/C=C/C=C(C)/C=C/C2=C(C)CCCC2(C)C)C(C)(C)CCC1 [β-carotene],Large Spots (>2 Cells) m = 5,"[1]; single treatment, 0.0003 μM",0.00 (0) clones per wing
same,Small Spots (1–2 Cells) m = 2,"[1]; single treatment, 0.0003 μM",0.08 (3) clones per wing
same,Total Spots m = 2,"[1]; single treatment, 0.0003 μM",0.08 (3) clones per wing
same,Twin Spots m = 5,"[1]; single treatment, 0.0003 μM",0.00 (0) clones per wing
same,Mann-Whitney Test,"[1]; single treatment, 0.0003 μM",n.s.
same,Large Spots (>2 Cells) m = 5,"[1]; single treatment, 0.0689 μM",0.03 (1) clones per wing
same,Small Spots (1–2 Cells) m = 2,"[1]; single treatment, 0.0689 μM",0.03 (1) clones per wing
same,Total Spots m = 2,"[1]; single treatment, 0.0689 μM",0.05 (2) clones per wing
same,Twin Spots m = 5,"[1]; single treatment, 0.0689 μM",0.00 (0) clones per wing
same,Mann-Whitney Test,"[1]; single treatment, 0.0689 μM",n.s.
same,inhibition at 0.0003 µM,"[2]; Drosophila melanogaster, ip, 0.0003 μM, against H2O2 120 mM, read-out: inhibition percentage (IP) of genotoxicity",100%
same,Large Spots (>2 Cells) m = 5,[2]; 0.0003 μM,0.00 (0) clones per wing
same,Small Spots (1–2 Cells) m = 2,[2]; 0.0003 μM,0.00 (0) clones per wing
same,Total Spots m = 2,[2]; 0.0003 μM,0.00 (0) clones per wing
same,Twin Spots m = 5,[2]; 0.0003 μM,0.00 (0) clones per wing
same,Mann-Whitney Test,[2]; 0.0003 μM,n.s.
same,Large Spots (>2 Cells) m = 5,[2]; 0.0689 μM,0.03 (1) clones per wing
same,Small Spots (1–2 Cells) m = 2,[2]; 0.0689 μM,0.08 (3) clones per wing
same,Total Spots m = 2,[2]; 0.0689 μM,0.11 (4) clones per wing
same,Twin Spots m = 5,[2]; 0.0689 μM,0.00 (0) clones per wing
same,Mann-Whitney Test,[2]; 0.0689 μM,n.s.
same,internucleosomal DNA fragmentation ladder pattern,HL60 cells [4],did not show any internucleosomal fragmentation ladder pattern
same,apoptosis by Annexin V/PI versus negative control,HL60 cells [5],induced apoptosis
same,ID50,HL60 cells [6],27 µM
same,detoxification of the mutation induced by doxorubicin,Drosophila melanogaster,up to 95%
